Patent US20130032547A1, “STABILIZATION AND DISINFECTION OF WASTES USING HIGH ENERGY E-BEAM AND CHEMICAL OXIDANTS” (priority 2011, published 2013)
“Also recorded” adds a separate entry of the source.

Legend:
[1] = test system: fecal coliforms (E. coli); experiment: Re-growth of fecal coliforms (spiked E. coli) in treated biosolids (U.S. EPA method 1680, MPN); format: cell-based; details: for fecal coliforms, Plate count: Sep. 11, 2009
[2] = test system: somatic coliphages (phi X 174); format: cell-based, coliphage phi X 174
[3] = test system: Poliovirus Type 1; details: cited from earlier work
[4] = test system: estrogenic activity of 17-β-estradiol (E2); human estrogen receptor; experiment: Estrogenic activity, YES assay (recombinant yeast); format: cell-based, Saccharomyces cereviciae; details: for % Reduction in Estrogenic Activity, Solid Portion (n = 3): E2 spiked
[5] = test system: Salmonella Typhimurium; format: cell-based
[6] = test system: Salmonella Typhimurium; experiment: Re-growth of spiked Salmonella in treated biosolids (U.S. EPA method 1682, MPN); format: cell-based; details: for Salmonella, Plate count: Sep. 11, 2009
[7] = test system: Escherichia coli (ATCC #25922); format: cell-based
[8] = test system: male-specific coliphages (MS-2); format: cell-based, coliphage MS-2
[9] = test system: estrogenic activity of 17-β-estradiol (E2); human estrogen receptor (ER) α; experiment: Estrogenic activity, ZR-75 breast cancer cell ERE-Luc reporter assay; format: cell-based; details: E2 spiked
[10] = test system: Poliovirus Type 1; format: cell-based, Poliovirus-1
[11] = test system: aerobic spores (Bacillus subtilis); format: cell-based
[12] = test system: spiked organisms; experiment: Preliminary studies using PBS: ferrate with E-beam on spiked organisms; format: cell-based; details: ferrate 2 ppm or 4 ppm in combination with E-beam (6 kGy, 8 kGy and 12 kGy)
[13] = test system: estrogenic activity of 17-β-estradiol (E2); human estrogen receptor; details: it has been shown; cited from earlier work
[14] = Table 25, ClO2 + Irradiated, Oct. 5, 2009
[15] = Table 25, ClO2 + Irradiated, Sep. 18, 2009
[16] = Table 25, ClO2 + Irradiated, Sep. 25, 2009
[17] = Table 26, ClO2 + Irradiated, Oct. 5, 2009
[18] = Table 26, ClO2 + Irradiated, Sep. 18, 2009
[19] = Table 26, ClO2 + Irradiated, Sep. 25, 2009
[20] = Table 23, ClO2 + Irradiated, Oct. 5, 2009
[21] = Table 23, ClO2 + Irradiated, Sep. 18, 2009
[22] = Table 23, ClO2 + Irradiated, Sep. 25, 2009
[23] = Table 24, ClO2 + Irradiated, Oct. 5, 2009
[24] = Table 24, ClO2 + Irradiated, Sep. 18, 2009
[25] = Table 24, ClO2 + Irradiated, Sep. 25, 2009
[26] = Table 28, 50 ppm + E-Beam (8 kGy)
[27] = Table 28, 100 ppm + E-Beam (8 kGy)
[28] = Table 28, 200 ppm + E-Beam (8 kGy)
[29] = Table 29, 50 ppm + E-Beam (8 kGy)
[30] = Table 29, 100 ppm + E-Beam (8 kGy)
[31] = Table 29, 200 ppm + E-Beam (8 kGy)

## [O][Cl+][O-] [Chlorine Dioxide, chlorine dioxide]
[1]
  re-growth of fecal coliforms (in words): no re-growth
[1]; Table 25 (aerobic sludge inferred), ClO2
  fecal coliforms, Plate count: 4.27E+07
[1]; [14]
  fecal coliforms MPN/4 g dry wt: <0.1803 MPN/4 g dry wt
  fecal coliforms MPN/g dry wt: <0.1803 MPN/g dry wt
[1]; Table 25, ClO2 + Irradiated
  fecal coliforms, Plate count: 0.00E+00
[1]; [15]
  fecal coliforms MPN/4 g dry wt: <0.1803 MPN/4 g dry wt
  fecal coliforms MPN/g dry wt: <0.1803 MPN/g dry wt
[1]; [16]
  fecal coliforms MPN/4 g dry wt: <0.1803 MPN/4 g dry wt
  fecal coliforms MPN/g dry wt: <0.1803 MPN/g dry wt
[1]; Table 25, ClO2, Oct. 5, 2009
  fecal coliforms MPN/4 g dry wt: 1.37E+03 MPN/4 g dry wt
  fecal coliforms MPN/g dry wt: 3.44E+02 MPN/g dry wt
[1]; Table 25, ClO2, Sep. 18, 2009
  fecal coliforms MPN/4 g dry wt: 8.49E+05 MPN/4 g dry wt
  fecal coliforms MPN/g dry wt: 2.12E+05 MPN/g dry wt
[1]; Table 25, ClO2, Sep. 25, 2009
  fecal coliforms MPN/4 g dry wt: 6.47E+03 MPN/4 g dry wt
  fecal coliforms MPN/g dry wt: 1.62E+03 MPN/g dry wt
[1]; Table 26 (anaerobic sludge inferred), ClO2
  fecal coliforms, Plate count: 7.26E+06
[1]; [17]
  fecal coliforms MPN/4 g dry wt: <0.1803 MPN/4 g dry wt
  fecal coliforms MPN/g dry wt: <0.1803 MPN/g dry wt
[1]; Table 26, ClO2 + Irradiated
  fecal coliforms, Plate count: 2.14E+03
[1]; [18]
  fecal coliforms MPN/4 g dry wt: 1.01E+03 MPN/4 g dry wt
  fecal coliforms MPN/g dry wt: 2.53E+02 MPN/g dry wt
[1]; [19]
  fecal coliforms MPN/4 g dry wt: <0.1803 MPN/4 g dry wt
  fecal coliforms MPN/g dry wt: <0.1803 MPN/g dry wt
[1]; Table 26, ClO2, Oct. 5, 2009
  fecal coliforms MPN/4 g dry wt: <0.1803 MPN/4 g dry wt
  fecal coliforms MPN/g dry wt: <0.1803 MPN/g dry wt
[1]; Table 26, ClO2, Sep. 18, 2009
  fecal coliforms MPN/4 g dry wt: 1.02E+05 MPN/4 g dry wt
  fecal coliforms MPN/g dry wt: 2.54E+04 MPN/g dry wt
[1]; Table 26, ClO2, Sep. 25, 2009
  fecal coliforms MPN/4 g dry wt: 1.67E+03 MPN/4 g dry wt
  fecal coliforms MPN/g dry wt: 4.17E+02 MPN/g dry wt
[2]
  inactivation (in words): effectively eliminated; also recorded: significant reductions
[3]
  time to inactivate clumped poliovirus I aggregates compared to single state viruses: 2.7 times longer
[4]
  estrogenic activity, E2 spiked (untreated) vs treated samples (in words): no significant difference
  reduction of estrogenic activity (in words): does not reduce
[5]
  log reduction: 3 log
  reduction (in words): did not show any significant reduction
[6]
  re-growth of Salmonella spp. (in words): no re-growth
[6]; Table 23 (% total solid 0.0131, aerobic inferred), ClO2
  Salmonella, Plate count: 2.98E+08
[6]; [20]
  Salmonella MPN/4 g (dry weight): 2.20E+01 MPN/4 g (dry weight)
  Salmonella MPN/4 g (dry weight) based on 2 ml, 1 ml, 0.1 ml: 2.2E+00 MPN/4 g (dry weight)
  Salmonella MPN/ml (wet weight): 0.0072 MPN/ml (wet weight)
[6]; Table 23, ClO2 + Irradiated
  Salmonella, Plate count: 4.43E+05
[6]; [21]
  Salmonella MPN/4 g (dry weight): 1.91E+02 MPN/4 g (dry weight)
  Salmonella MPN/4 g (dry weight) based on 2 ml, 1 ml, 0.1 ml: 1.9E+01 MPN/4 g (dry weight)
  Salmonella MPN/ml (wet weight): 0.0626 MPN/ml (wet weight)
[6]; [22]
  Salmonella MPN/4 g (dry weight): 7.15E+01 MPN/4 g (dry weight)
  Salmonella MPN/4 g (dry weight) based on 2 ml, 1 ml, 0.1 ml: 7.1E+00 MPN/4 g (dry weight)
  Salmonella MPN/ml (wet weight): 0.0234 MPN/ml (wet weight)
[6]; Table 23, ClO2, Oct. 5, 2009
  Salmonella MPN/4 g (dry weight): 7.79E+01 MPN/4 g (dry weight)
  Salmonella MPN/4 g (dry weight) based on 2 ml, 1 ml, 0.1 ml: 7.8E+00 MPN/4 g (dry weight)
  Salmonella MPN/ml (wet weight): 0.0255 MPN/ml (wet weight)
[6]; Table 23, ClO2, Sep. 18, 2009
  Salmonella MPN/4 g (dry weight): 4.91E+03 MPN/4 g (dry weight)
  Salmonella MPN/4 g (dry weight) based on 2 ml, 1 ml, 0.1 ml: 4.9E+02 MPN/4 g (dry weight)
  Salmonella MPN/ml (wet weight): 1.6090 MPN/ml (wet weight)
[6]; Table 23, ClO2, Sep. 25, 2009
  Salmonella MPN/4 g (dry weight): 3.51E+02 MPN/4 g (dry weight)
  Salmonella MPN/4 g (dry weight) based on 2 ml, 1 ml, 0.1 ml: 3.5E+01 MPN/4 g (dry weight)
  Salmonella MPN/ml (wet weight): 0.1151 MPN/ml (wet weight)
[6]; Table 24 (% total solid 0.0312, anaerobic inferred), ClO2
  Salmonella, Plate count: 3.03E+06
[6]; [23]
  Salmonella MPN/4 g (dry weight): 4.41E+01 MPN/4 g (dry weight)
  Salmonella MPN/4 g (dry weight) based on 2 ml, 1 ml, 0.1 ml: 4.4E+00 MPN/4 g (dry weight)
  Salmonella MPN/ml (wet weight): 0.0344 MPN/ml (wet weight)
[6]; Table 24, ClO2 + Irradiated
  Salmonella, Plate count: 3.85E+03
[6]; [24]
  Salmonella MPN/4 g (dry weight): 6.95E+02 MPN/4 g (dry weight)
  Salmonella MPN/4 g (dry weight) based on 2 ml, 1 ml, 0.1 ml: 7.0E+01 MPN/4 g (dry weight)
  Salmonella MPN/ml (wet weight): 0.5422 MPN/ml (wet weight)
[6]; [25]
  Salmonella MPN/4 g (dry weight): 8.03E+01 MPN/4 g (dry weight)
  Salmonella MPN/4 g (dry weight) based on 2 ml, 1 ml, 0.1 ml: 8.0E+00 MPN/4 g (dry weight)
  Salmonella MPN/ml (wet weight): 0.0626 MPN/ml (wet weight)
[6]; Table 24, ClO2, Oct. 5, 2009
  Salmonella MPN/4 g (dry weight): 8.03E+01 MPN/4 g (dry weight)
  Salmonella MPN/4 g (dry weight) based on 2 ml, 1 ml, 0.1 ml: 8.0E+00 MPN/4 g (dry weight)
  Salmonella MPN/ml (wet weight): 0.0626 MPN/ml (wet weight)
[6]; Table 24, ClO2, Sep. 18, 2009
  Salmonella MPN/4 g (dry weight): 2.06E+03 MPN/4 g (dry weight)
  Salmonella MPN/4 g (dry weight) based on 2 ml, 1 ml, 0.1 ml: 2.1E+02 MPN/4 g (dry weight)
  Salmonella MPN/ml (wet weight): 1.6090 MPN/ml (wet weight)
[6]; Table 24, ClO2, Sep. 25, 2009
  Salmonella MPN/4 g (dry weight): 4.46E+02 MPN/4 g (dry weight)
  Salmonella MPN/4 g (dry weight) based on 2 ml, 1 ml, 0.1 ml: 4.5E+01 MPN/4 g (dry weight)
  Salmonella MPN/ml (wet weight): 0.3475 MPN/ml (wet weight)
[7]
  log reduction: 4 to 5 log
  log reduction (complete reduction): approximately 8 log
  reduction (in words): did not exhibit any reduction

## C[C@]12CC[C@@H]3c4ccc(O)cc4CC[C@H]3[C@@H]1CC[C@@H]2O [E2, 17-β-estradiol, reference compound]
[4]; E2 standards in DMSO
  upper limit of the dynamic range of the YES assay (saturation): 60 nM

## [O]=[Fe](=[O])([O-])[O-] [Ferrate, ferrate]
[8]
  inactivation (in words): Complete inactivation
[9]; Table 28 (aerobically digested biosolids, inferred b252), 50 ppm Ferrate
  % Reduction in Estrogenic Activity, Liquid Portion (n = 3): 84%
[9]; [26]
  % Reduction in Estrogenic Activity, Liquid Portion (n = 3): 85%
[9]; [27]
  % Reduction in Estrogenic Activity, Liquid Portion (n = 3): 90%
[9]; Table 28, 100 ppm Ferrate
  % Reduction in Estrogenic Activity, Liquid Portion (n = 3): 88%
[9]; [28]
  % Reduction in Estrogenic Activity, Liquid Portion (n = 3): 81%
[9]; Table 28, 200 ppm Ferrate
  % Reduction in Estrogenic Activity, Liquid Portion (n = 3): 89%
[9]; Table 29 (anaerobically digested biosolids, inferred b252), 50 ppm Ferrate
  % Reduction in Estrogenic Activity, Liquid Portion (n = 3): 68%
[9]; [29]
  % Reduction in Estrogenic Activity, Liquid Portion (n = 3): 71%
[9]; [30]
  % Reduction in Estrogenic Activity, Liquid Portion (n = 3): 74%
[9]; Table 29, 100 ppm Ferrate
  % Reduction in Estrogenic Activity, Liquid Portion (n = 3): 73%
[9]; [31]
  % Reduction in Estrogenic Activity, Liquid Portion (n = 3): 71%
[9]; Table 29, 200 ppm Ferrate
  % Reduction in Estrogenic Activity, Liquid Portion (n = 3): 72%
[4]; [26]
  % Reduction in Estrogenic Activity, Solid Portion (n = 3): 40%
[4]; Table 28, 50 ppm Ferrate
  % Reduction in Estrogenic Activity, Solid Portion (n = 3): 40%
[4]; [27]
  % Reduction in Estrogenic Activity, Solid Portion (n = 3): 43%
[4]; Table 28, 100 ppm Ferrate
  % Reduction in Estrogenic Activity, Solid Portion (n = 3): 27%
[4]; [28]
  % Reduction in Estrogenic Activity, Solid Portion (n = 3): 51%
[4]; Table 28, 200 ppm Ferrate
  % Reduction in Estrogenic Activity, Solid Portion (n = 3): 59%
[4]; [29]
  % Reduction in Estrogenic Activity, Solid Portion (n = 3): 29%
[4]; Table 29, 50 ppm Ferrate
  % Reduction in Estrogenic Activity, Solid Portion (n = 3): 30%
[4]; [30]
  % Reduction in Estrogenic Activity, Solid Portion (n = 3): 20%
[4]; Table 29, 100 ppm Ferrate
  % Reduction in Estrogenic Activity, Solid Portion (n = 3): 31%
[4]; [31]
  % Reduction in Estrogenic Activity, Solid Portion (n = 3): 30%
[4]; Table 29, 200 ppm Ferrate
  % Reduction in Estrogenic Activity, Solid Portion (n = 3): 29%
[5]
  log reduction (approximated): around three
  surviving bacterial colonies (detection limit): < 10 CFU/ml
[10]
  inactivation (in words): complete elimination
[11]
  log reduction of spore formers: two to three
  reduction of spore formers (in words): slight reduction
[12]
  inactivation (in words): inactivated
[7]
  surviving bacterial colonies (detection limit): < 10 CFU/ml

## CC/C(=C(\c1ccc(O)cc1)c1ccc(OCCN(C)C)cc1)c1ccccc1 [hydroxytamoxifen]
[13]
  response in the YES assay (in words): partial agonistic (estrogenic) response
